ChEMBL document CHEMBL5053551, “Structure-Based Design of Dual Partial Peroxisome Proliferator-Activated Receptor γ Agonists/Soluble Epoxide Hydrolase Inhibitors” (J Med Chem, 2021)
pEC50, pIC50: −log10 of the molar value. Calls of active or inactive are those of the source. The calls are words filed in the database; no cut-off is given here.

Assays:
[1] = target: T1, Peroxisome proliferator-activated receptor gamma (Homo sapiens, UniProt P37231); assay: Partial agonist activity at GAL4-tagged human PPARgamma LBD expressed in HEK293T cells incubated for 12 to 14 hrs by dual-Glo luciferase assay; format: cell-based
T1 sequence (P37231 whole entry): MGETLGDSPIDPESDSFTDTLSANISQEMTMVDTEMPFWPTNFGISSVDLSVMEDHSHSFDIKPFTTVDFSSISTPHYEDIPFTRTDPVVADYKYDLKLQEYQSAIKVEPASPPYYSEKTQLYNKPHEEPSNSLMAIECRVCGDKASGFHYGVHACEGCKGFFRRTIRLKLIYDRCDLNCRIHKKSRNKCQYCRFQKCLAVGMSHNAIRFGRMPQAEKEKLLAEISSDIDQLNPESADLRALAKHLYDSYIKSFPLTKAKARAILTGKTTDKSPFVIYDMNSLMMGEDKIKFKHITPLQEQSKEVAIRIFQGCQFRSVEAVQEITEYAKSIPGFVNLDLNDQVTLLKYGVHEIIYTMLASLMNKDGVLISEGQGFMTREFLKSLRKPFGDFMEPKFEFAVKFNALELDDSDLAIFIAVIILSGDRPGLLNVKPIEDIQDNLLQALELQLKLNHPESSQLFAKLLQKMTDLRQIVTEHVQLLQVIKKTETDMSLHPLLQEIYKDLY

HepG2 [2] = assay: Induction of cell proliferation in human HepG2 cells; format: functional, cell-based; conditions: dose 2.5-100 µM
HepG2 [3] = assay: Cytotoxicity agianst human HepG2 cells assessed as reduction in cell viability at 30 uM after 48 hrs by WST-1 assay; format: cell-based; conditions: hepg2, 48 h
[4] = target: T2, Vitamin D3 receptor (Homo sapiens) (UniProt P11473); assay: Partial agonist activity at GAL4-tagged human VDR LBD expressed in HEK293T cells at 3 uM incubated for 12 to 14 hrs by dual-Glo luciferase assay; format: cell-based; conditions: filed as partial agonist, time 12-14 hrs
T2 sequence (whole entry): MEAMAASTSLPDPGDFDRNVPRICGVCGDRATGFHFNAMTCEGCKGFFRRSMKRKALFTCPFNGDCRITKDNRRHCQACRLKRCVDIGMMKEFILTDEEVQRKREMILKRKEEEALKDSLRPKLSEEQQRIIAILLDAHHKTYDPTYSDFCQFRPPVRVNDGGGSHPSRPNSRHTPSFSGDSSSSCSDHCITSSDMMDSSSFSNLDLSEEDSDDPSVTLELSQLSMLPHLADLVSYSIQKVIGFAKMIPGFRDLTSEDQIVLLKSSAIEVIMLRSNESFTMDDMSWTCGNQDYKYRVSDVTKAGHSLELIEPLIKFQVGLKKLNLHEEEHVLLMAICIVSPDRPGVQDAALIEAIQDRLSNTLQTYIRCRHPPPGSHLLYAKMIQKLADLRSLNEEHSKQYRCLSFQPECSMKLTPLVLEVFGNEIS

[5] = target: T3, Nuclear receptor subfamily 1 group I member 3 (Homo sapiens, UniProt Q14994); assay: Partial agonist activity at GAL4-tagged human CAR LBD expressed in HEK293T cells at 3 uM incubated for 12 to 14 hrs by dual-Glo luciferase assay; format: cell-based; conditions: time 12-14 hrs
T3 sequence (Q14994 whole entry): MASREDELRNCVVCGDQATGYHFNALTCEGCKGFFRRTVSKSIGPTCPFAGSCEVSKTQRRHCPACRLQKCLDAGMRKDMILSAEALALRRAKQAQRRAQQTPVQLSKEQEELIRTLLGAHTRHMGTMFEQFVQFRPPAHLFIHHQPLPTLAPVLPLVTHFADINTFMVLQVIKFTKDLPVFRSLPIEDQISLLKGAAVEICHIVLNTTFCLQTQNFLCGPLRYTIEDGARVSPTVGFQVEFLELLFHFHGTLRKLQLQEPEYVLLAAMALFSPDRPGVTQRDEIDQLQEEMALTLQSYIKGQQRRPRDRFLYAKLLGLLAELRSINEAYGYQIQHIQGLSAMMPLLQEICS

[6] = Stability of compound in BALB/c mouse liver microsomes assessed as half life at 10 uM preincubated for 5 mins in presence of NADPH regenerating system followed by microsomal addition and measured upto 60 mins by HPLC analysis; format: ADME, Microsome; conditions: time 65 min
[7] = target: T1, Peroxisome proliferator-activated receptor gamma; assay: Partial agonist activity at sGSF-PPARgamma (unknown origin) assessed as CBP-1 recruitment by HT-FRET assay
[8] = Drug metabolism in rat liver microsomes assessed as metabolite formation after 60 mins by UPLC-MS analysis; format: ADME, Microsome; conditions: 1 h
HepG2 [9] = assay: Cytotoxicity agianst human HepG2 cells assessed as reduction in cell viability at 10 to 30 uM after 48 hrs by WST-1 assay; format: cell-based; conditions: hepg2, 48 h, dose 10-30 µM
[10] = target: T4, Bifunctional epoxide hydrolase 2 (Homo sapiens, UniProt P34913); assay: Inhibition of recombinant human full length sEH assessed as reduction in 6-methoxy-2-naphthaldehyde formation using PHOME as substrate preincubated for 30 to 45 mins followed by substrate addition and measured after 30 to 45 mins by fluorescence assay
T4 sequence (P34913 whole entry): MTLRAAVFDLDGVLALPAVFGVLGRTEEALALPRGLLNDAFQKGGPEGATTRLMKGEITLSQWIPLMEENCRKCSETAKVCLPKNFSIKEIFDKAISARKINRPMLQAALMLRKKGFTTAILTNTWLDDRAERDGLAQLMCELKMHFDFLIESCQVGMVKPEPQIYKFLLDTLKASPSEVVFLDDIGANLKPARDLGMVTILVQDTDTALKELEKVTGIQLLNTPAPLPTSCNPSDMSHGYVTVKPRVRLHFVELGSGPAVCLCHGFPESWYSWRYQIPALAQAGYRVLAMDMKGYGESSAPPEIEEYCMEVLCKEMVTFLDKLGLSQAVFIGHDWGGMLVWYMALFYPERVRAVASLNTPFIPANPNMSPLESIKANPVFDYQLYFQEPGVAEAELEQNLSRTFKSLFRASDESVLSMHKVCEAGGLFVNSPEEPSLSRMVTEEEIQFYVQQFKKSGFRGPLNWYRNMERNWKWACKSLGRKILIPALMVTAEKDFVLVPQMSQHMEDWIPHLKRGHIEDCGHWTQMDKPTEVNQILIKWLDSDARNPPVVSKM

[11] = target: T1, Peroxisome proliferator-activated receptor gamma; assay: Partial agonist activity at recombinant sGSF-PPARgamma (unknown origin) assessed as reduction in rosiglitazone induced CBP-1 recruitment incubated for 1 hr by HTRF competitive assay

SMILES: O=C(NCc1ccc(NS(=O)(=O)C2CC2)cc1C(F)(F)F)c1ccc2c(ccn2Cc2cccc(F)c2)c1
- pEC50 [1]: 6.66
- Activity (HepG2 [2]): Dose-dependent effect
- Activity (HepG2 [3]): Non-Toxic
- Activity [4]: Active
- Activity [5]: Active
- half-life at 10 µM [6]: 0.983 h
- pEC50 [7]: 6.74

SMILES: CS(=O)(=O)Nc1ccc(CNC(=O)c2ccc3c(ccn3Cc3cccc(F)c3)c2)c(C(F)(F)F)c1
- Drug metabolism [8]: Metabolite_Detected
- pEC50 [1]: 6.72
- Activity (HepG2 [9]): Toxic
- Activity [4]: Active
- pIC50 [10]: 8.30
- Activity [5]: Active
- half-life at 10 µM [6]: 1.02 h
- pEC50 [7]: 6.48
- pIC50 [11]: 5.79
